# Source: patent US8883849B2, “Treatment of sleep disturbances” (Wyeth LLC, priority 2001, dated 2014)
# “Also recorded” adds a separate entry of the source. Read-outs that look alike come from different tables or passages of the source. Marks after values point to notes of the source that are not given here.
# Experiments:
# [1] = test system: patients evaluated for sleep disturbances after oral surgery; assay: Study A: single dose after oral surgery, ibuprofen, diphenhydramine and combination vs placebo; assay type: in vivo, human; details: diphenhydramine HCl 50 mg; for Duration of Sleep: 6-point categorical scale 0 (≦5 hours) to 5 (≧9 hours); for Global Evaluation: global evaluation of sleep, 5-point categorical scale; for Cumulative % Asleep at 60 minutes: nurse graded; for Sleep Latency (median): nurse observed, single dose ibuprofen 400 mg; for Time to Rescue (median): nurse recorded; for SPRID3: time-weighted sum of pain relief and pain intensity differences over 0-3 hours
# Excerpt: A single center, inpatient, single dose, randomized (stratified by gender and baseline pain severity), double blind, double dummy, parallel group placebo controlled study was used.
# In a double dummy scenario, patients are given multiple dosage forms, one study medication for the group in which they are assigned, and placebos resembling the dosage forms for the other study groups. […] The combination was in a soft gelatin capsule formulation.
# The art recognizes that patient-assessed duration of sleep is a very good indicator of the amount of sleep received by the patient. If patients requested rescue medication within an hour of receiving treatment, they were considered protocol violators and removed from the study.
# The SPRID3 calculation was as follows. AT 90 minutes, 2 hours, and 3 hours, the patients were woken and asked two questions: how much relief of pain have you had? (no relief=0, a little=1, some=2, a lot=3, complete=4) and what is the severity of your pain? (none=0, mild=1, moderate=2, severe=3). Pain intensity difference (PID) was determined by subtracting the severity of pain score at the time in question to the baseline score measured before treatment. The pain relief rating (PPR) was then added to the PID for a PRID score. The PRID scores were plotted on a graph over time for each patient, and the SPRID3 score was read as the area under the curve for each patient's PRID plot. SPRID3 is a combination measurement of pain relief and pain severity.
# In this model, only one hour of phase shifting sleeplessness was induced, compared to three hours in subsequent studies. In other words, patients were required to go to sleep one hour earlier than their bedtime.
# [2] = Interaction and stability testing of ibuprofen and diphenhydramine in one composition; assay type: physicochemical; details: dissolution, appearance, potency
# Excerpt: An ion pair or salt could, thus, be formed. Such an interaction creates a more nonpolar composition, which may have different dissolution characteristics and absorption profile in the body. Such changes in a pharmaceutical composition may be highly undesirable, due to unpredictability of effect.
# [3] = oral administration, cited from earlier work
# [4] = test system: subjects of the partial factorial studies (pain after oral surgery); assay: Pooled data of studies AE-98-01/02; assay type: in vivo, human; details: for % who required remed.: Pooled Studies AE-98-01/02
# Excerpt: Data from two of the studies were pooled together. Some of the most significant study data are presented in Table 7, with graphical representations of the data in FIGS. 28-29.
# [5] = test system: normal sleep patterns in humans; details: cited from earlier work
# [6] = test system: patients with pain following oral surgery, bedtime 3 hours early; assay: Study B (AE-98-01): ibuprofen/diphenhydramine combination vs ibuprofen alone and placebo after oral surgery; assay type: in vivo, human
# Procedure: This study was conducted in a similar manner to Example 1.
# The placebo group also received soft gelatin capsules.
# The trial was conducted as a randomized, stratified (by baseline pain and gender), inpatient, placebo controlled, partial factorial, single dose, double blind, parallel group, single center trial. Following oral surgery, patients were kept at the clinic site overnight. Study medications were dispenses when patients experienced pain at a moderate level or greater, and when it was between about 6:30 and 8:00 p.m. (3 hours prior to the patient's usual bedtime). Patients were required to go to sleep after receiving study medication.
# The same sleep parameters were used as in Example 1. Additionally, global assessment as a pain reliever was determined. This parameter was a patient-assessed parameter made at the time of rescue medication, if needed, or in the morning, if no rescue medication. Pain relief was assessed on a five-point scale (0=poor, 1=fair, 2=good, 3=very good, 4=excellent). Sleep was monitored by an observer at regular intervals over 3 hours post-dosing. Patients provided pain assessments at 90 and 120 minutes post-dosing. Patients also provided subjective assessments of sleep efficacy, global assessments of sleep and pain the next morning or at the time rescue medication was used.
# The following statistical methods were used. All analyses were done using SAS® Version 6.12. Subjective sleep and pain assessments were analyzed by analysis of variance (ANOVA), incorporating effects for treatment, baseline pain severity rating (PSR), and gender in the model. In addition, the interactions of treatment-by-baseline PSR and treatment-by-gender were assessed (at the 0.15 level) in separate models, by adding interaction terms, one at a time, to the initial ANOVA model. The distributions of sleep latency and time to rescue medication were assessed using the Kaplan-Meier estimates, and the variables were analyzed using the Cox proportional hazards regression model with treatment, baseline PSR and gender effects. In addition, the interactions of treatment-by-baseline PSR and treatment-by-gender were assessed (at the 0.15 level) in separate models by adding each interaction term, one at a time, to the initial model.
# If each interaction was generally significant (p≦0.15), it was retained in the final model. In the assessment of treatment effects in the presence of interactions, each level of the stratifying variable were to be weighted equally (consistent with the ANOVA models). Ninety-five percent confidence intervals for the median time to sleep and median time to rescue medication were derived. In addition, the actual and cumulative proportion of subjects asleep at each observation time point and the cumulative proportion of subjects who took rescue medication by each observation time point were analyzed by the Cochran-Mantel-Haenszel test controlling for baseline PSR and gender.
# In order to protect the Type I error at the 0.05 level, comparisons were tested in sequential order. Each step had to be significant for the subsequent steps to be eligible for significance.
# The secondary end points were assessed at the 0.05 level of significance, in the same sequential order.
# The primary analysis of efficacy was conducted on the intent-to-treat population, which included all randomized subjects who took the study medication and had at least one post-baseline (sleep and pain) efficacy assessment.
# [7] = test system: subjects with pain following oral surgery, bedtime at least 3 hours early; assay: Study C (AE-98-02): ibuprofen/diphenhydramine combination vs ibuprofen alone after oral surgery; assay type: in vivo, human
# Procedure: This was a randomized stratified (by baseline pain and gender), inpatient, placebo-controlled, partial-factorial, single-dose, double-blind, parallel group, single-center trial. Following oral surgery, subjects were housed and observed at a clinic site overnight. When subjects experienced at least moderate pain and it was between approximately 6:30 PM and 8:00 PM (at least 3 hours earlier than their usual bedtime), they received study medication and were required to go to bed for the evening. Sleep was evaluated by an observer at regular intervals over 3 hours post-dosing. […] Subjects also provided subjective assessments of sleep efficacy as well as global assessments of the study medication as a sleep-aid and as an analgesic the next morning (or at the time rescue medication was used).
# The patients were assessed for duration of sleep, cumulative percent of subjects asleep at 60 minutes post-dosing (based on observed sleep latency assessments). they were also assessed for pain using SPRID2 (time-weighted sum of pain relief and pain intensity differences from baseline over 0-2 hours). Sleep latency (observer based), ease of falling asleep, and global evaluation of sleep were also used.
# Cumulative percent of subjects asleep by 60 minutes was analyzed by the Cochran-Mantel-Haenszel test controlling for baseline PSR and gender. Subjective sleep and pain assessments were analyzed by analysis of variance (ANOVA), incorporating effects for treatment, baseline pain severity rating (PSR), and gender in the model. The distributions of sleep latency and time to rescue medication were assessed using the Kaplan-Meier estimates, and the variables were analyzed using the Cox proportional hazards (PH) regression model with treatment, baseline PSR, and gender effects. For both ANOVA and PH models, the interactions of treatment-by-baseline PSR and treatment-by-gender were assessed (at the 0.15 level) in separate models by adding each interaction term, one at a time, to the initial model. If each interaction was generally significant (p≦0.15), it was retained in the final model. In the assessment of treatment effects in the presence of interactions, each level of the stratifying variable was to be weighted equally.
# In order to protect the Type I error at the 0.05 level, comparisons were tested in sequential order for the primary as well as the secondary efficacy endpoints. Each step had to be significant for the subsequent steps to be eligible for significance. […] The secondary end points were assessed, at the 0.05 level of significance, in a similar sequential order. The primary analysis of efficacy was based on the intent-to-treat (ITT) population, which included all randomized subjects who took study medication and had at least one post-baseline (sleep and pain) efficacy assessment.
# [8] = Study B, 5-point scale 0=poor to 4=excellent, IBU 400 mg, DPH 50 mg
# [9] = Study C, 5-point scale 0=poor to 4=excellent, IBU 400 mg, DPH 50 mg
smiles,measurement,setting,value
"CN(C)CCOC(c1ccccc1)c1ccccc1 [DPH, 2-(diphenylmethoxy)-N,N-dimethylethylamine]",Duration of Sleep,[1]; ibuprofen 400 mg,0.23 A
same,Global Evaluation,[1]; ibuprofen 400 mg,0.77 A
same,% Requiring Rescue,[1]; ibuprofen 400 mg,97% B
same,Cumulative % Asleep at 60 minutes,[1]; ibuprofen 400 mg,61.3 A %
same,Sleep Latency (median),[1],51.3 A
same,Time to Rescue (median),[1]; ibuprofen 400 mg,2.04 A hours
same,SPRID3,[1]; ibuprofen 400 mg,1.8 A
same,interaction between ibuprofen and diphenhydramine in the composition,[2],much more prone to interaction than the citrate form
"CC(C)Cc1ccc(C(C)C(=O)O)cc1 (centres unmarked) [IBU, Ibuprofen]",time to peak serum concentrations,[3]; suspensions,≤ 1 h
same,time to peak serum concentrations,[3]; tablets,≤ 2 h
same,% who required remed.,[4],(45%)
same,% who required remed.,[4]; listed as ibuprofen,45%
same,Time to Remed.,"[4]; Table 7, Pooled Studies AE-98-01/02",>12.0 B hrs.
same,Duration of Sleep,"[4]; Table 7, Pooled Studies AE-98-01/02, 6-point scale",2.12 B
same,Global Eval - Sleep-Aid,"[4]; Table 7, pooled studies, 5-point scale 0-Poor to 4 = Excellent",1.60 B
same,subjects who slept for less than 5 hours,[4]; pooled data,32%
same,Ease of Falling Asleep,"[1]; 5-point scale 0=did not fall asleep to 4=very easy, ibuprofen 400 mg",2.10 B
same,Duration of Sleep,[1]; ibuprofen 400 mg,2.68 B
same,Global Evaluation,[1]; ibuprofen 400 mg,1.84 B
same,% Requiring Rescue,[1]; ibuprofen 400 mg,45% B
same,Cumulative % Asleep at 60 minutes,[1]; ibuprofen 400 mg,77.4 AB %
same,Sleep Latency (median),[1],25 min
same,Sleep Latency (median),[1]; listed as ibuprofen,significantly better than the diphenhydramine and placebo groups
same,Time to Rescue (median),[1]; ibuprofen 400 mg,>10 B hours
same,SPRID3,[1]; ibuprofen 400 mg,13.7 B
same,effect on sleep (Gengo 1996),[5]; healthy adults,no impact on sleep
same,effect on sleep (Murphy et al. 1994),[5]; patients not suffering from pain,"increase the number of awakenings and percentage of time spent in stage wake, and decrease sleep efficiency; also recorded: delay the onset of deeper stages of sleep"
same,Ease of Falling Asleep - mean,"[6]; Study B, 5-point scale 0-4, IBU 400 mg, DPH 50 mg",1.81*
same,Global Assessment as a Pain Reliever,[6]; [8],2.30*
same,Global Assessment as a Sleep-Aid,[6]; [8],1.63*
same,Duration of Sleep - mean,"[6]; Study B, 6-point categorical scale, IBU 400 mg, DPH 50 mg",2.26*
same,PRID 90 minutes,"[6]; Study B, 90 minutes post-dosing, IBU 400 mg, DPH 50 mg",3.72*
same,PRID 120 minutes,"[6]; Study B, 120 minutes post-dosing, IBU 400 mg, DPH 50 mg",4.09*
same,% Requiring Rescue Medication for Any Reason,"[6]; Study B, IBU 400 mg, DPH 50 mg",48.3* %
same,SPRID2,"[6]; Study B, IBU 400 mg, DPH 50 mg",7.63*
same,Sleep Latency (Observed) - median,"[6]; Study B, IBU 400 mg, DPH 50 mg",44.0* minutes
same,Time to Rescue Medication for Any Reason,"[6]; Study B, IBU 400 mg, DPH 50 mg",>12* hours
same,Cumulative % Asleep at 60 minutes,"[6]; Study B, IBU 400 mg, DPH 50 mg, soft gelatin capsules",64.4^† %
same,% who required remed.,"[6]; Table 7, Study AE-98-01",(48%)
same,Time to Remed.,"[6]; Table 7, Study AE-98-01",>12.0 B hrs.
same,Global Eval - Sleep-Aid,"[6]; Table 7, Study AE-98-01, 5-point scale 0-Poor to 4 = Excellent",1.63 B
same,Duration of Sleep,"[6]; Table 7, Study AE-98-01, 6-point scale 0 = <5 hrs to 5 = >9 hrs",2.26 B
same,Ease of Falling Asleep,"[7]; Study C, 5-point scale 0-4, IBU 400 mg, DPH 50 mg",1.89^†
same,Global Assessment as a Pain Reliever,[7]; [9],2.51^†
same,Global Assessment as a Sleep-Aid,[7]; [9],1.57^†
same,Duration of Sleep,"[7]; Study C, 6-point categorical scale, IBU 400 mg, DPH 50 mg, soft gelatin capsules",1.98^†
same,PRID 90 minutes,"[7]; Study C, 90 minutes post-dosing, IBU 400 mg, DPH 50 mg","3.83^†,§"
same,PRID 120 minutes,"[7]; Study C, 120 minutes post-dosing, IBU 400 mg, DPH 50 mg",4.13^†
same,% Requiring Rescue Medication for Any Reason,"[7]; Study C, IBU 400 mg, DPH 50 mg",42.3^† %
same,Cumulative % Asleep at 60 minutes,"[7]; Study C, IBU 400 mg, DPH 50 mg",75.6^† %
same,Time to Rescue Medication for Any Reason,"[7]; Study C, IBU 400 mg, DPH 50 mg",>12^† hours
same,SPRID2,"[7]; Study C, over 0-2 hours, IBU 400 mg, DPH 50 mg","7.81^†,§"
same,% who required remed.,"[7]; Table 7, Study AE-98-02",(42%)
same,Time to Remed.,"[7]; Table 7, Study AE-98-02",>12.0 B hrs.
same,Global Eval - Sleep-Aid,"[7]; Table 7, Study AE-98-02, 5-point scale 0-Poor to 4 = Excellent",1.57 B
same,Duration of Sleep,"[7]; Table 7, Study AE-98-02, 6-point scale 0 = <5 hrs to 5 = >9 hrs",1.98 B
